According to the supplement of paper PMC13380429:

Assays:
Conditions in all cases: 72 h
Calu-3 [1] = assay: drug sensitivity score (DSS) for viability; higher = more toxic; extreme values may be limits of the assay
Caco-2 [2] = assay: as above
HepG2 [3] = assay: as above
U2OS [4] = assay: as above
Vero E6 [5] = assay: as above
Calu-3 [6] = assay: cell viability relative to DMSO; higher = less toxic
Caco-2 [7] = assay: as above
HepG2 [8] = assay: as above
U2OS [9] = assay: as above
Vero E6 [10] = assay: as above
Calu-3 [11] = assay: relative viability EC50 (midpoint between 100% and the lowest measured viability); higher = less toxic
Caco-2 [12] = assay: as above
HepG2 [13] = assay: as above
U2OS [14] = assay: as above
Vero E6 [15] = assay: as above

| Structure (SMILES) | drug sensitivity score (Calu-3 [1]) | drug sensitivity score (Caco-2 [2]) | drug sensitivity score (HepG2 [3]) | drug sensitivity score (U2OS [4]) | drug sensitivity score (Vero E6 [5]) | cell viability (Calu-3 [6]; 1 nM) | cell viability (Calu-3 [6]; 10 nM) | cell viability (Calu-3 [6]; 100 nM) | cell viability (Calu-3 [6]; 1000 nM) | cell viability (Calu-3 [6]; 10000 nM) | cell viability (Caco-2 [7]; 1 nM) | cell viability (Caco-2 [7]; 10 nM) | cell viability (Caco-2 [7]; 100 nM) | cell viability (Caco-2 [7]; 1000 nM) | cell viability (Caco-2 [7]; 10000 nM) | cell viability (HepG2 [8]; 1 nM) | cell viability (HepG2 [8]; 10 nM) | cell viability (HepG2 [8]; 100 nM) | cell viability (HepG2 [8]; 1000 nM) | cell viability (HepG2 [8]; 10000 nM) | cell viability (U2OS [9]; 1 nM) | cell viability (U2OS [9]; 10 nM) | cell viability (U2OS [9]; 100 nM) | cell viability (U2OS [9]; 1000 nM) | cell viability (U2OS [9]; 10000 nM) | cell viability (Vero E6 [10]; 1 nM) | cell viability (Vero E6 [10]; 10 nM) | cell viability (Vero E6 [10]; 100 nM) | cell viability (Vero E6 [10]; 1000 nM) | cell viability (Vero E6 [10]; 10000 nM) | relative viability EC50 (Calu-3 [11]) | relative viability EC50 (Caco-2 [12]) | relative viability EC50 (HepG2 [13]) | relative viability EC50 (U2OS [14]) | relative viability EC50 (Vero E6 [15]) |
| --- | --- | --- | --- | --- | --- | --- | --- | --- | --- | --- | --- | --- | --- | --- | --- | --- | --- | --- | --- | --- | --- | --- | --- | --- | --- | --- | --- | --- | --- | --- | --- | --- | --- | --- | --- |
| Cc1ccc(Cl)c(OC[C@H](O)CNC(C)C)c1 [1-(2-chloro-5-methylphenoxy)-3-(isopropylamino)-2-propanol] | 0 | 0 | 0 | 0 | 0 | 96.6% | 101% | 103% | 108% | 102% | 95.1% | 101% | 99.1% | 91.1% | 94.8% | 93.5% | 100% | 108% | 104% | 103% | 104% | 97.2% | 101% | 106% | 101% | 104% | 103% | 95.9% | 104% | 92.8% | > 10 µM | > 10 µM | > 10 µM | > 10 µM | > 10 µM |
| CC(=O)N1CCN(C)CC1 [1-acetyl-4-methylpiperazine] | 0 | 0 | 0 | 0 | 0 | 89.8% | 86.6% | 95% | 100% | 93.8% | 100% | 93.6% | 101% | 95.7% | 97.3% | 104% | 111% | 101% | 99.5% | 100% | 103% | 99.1% | 96.2% | 99.8% | 102% | 105% | 104% | 104% | 98.2% | 95.9% | > 10 µM | > 10 µM | > 10 µM | > 10 µM | > 10 µM |
| COc1ccc2[nH]c(I)c(CCNC(C)=O)c2c1 [2-iodomelatonin] | 0 | 0 | 0 | 0 | 0 | 99.5% | 100% | 103% | 92.7% | 94.8% | 98.5% | 106% | 94.6% | 104% | 96.2% | 105% | 98.6% | 113% | 96.5% | 105% | 95.3% | 103% | 94.9% | 97.9% | 102% | 94.6% | 93.1% | 92.4% | 94.9% | 108% | > 10 µM | > 10 µM | > 10 µM | > 10 µM | > 10 µM |
| c1ccc([C@H]2CNCc3ccccc32)cc1 [4-phenyl-1,2,3,4-tetrahydroisoquinoline] | 0 | 0 | 0 | 0 | 0 | 101% | 109% | 92.3% | 102% | 105% | 98.1% | 109% | 97.3% | 103% | 103% | 101% | 91.7% | 103% | 104% | 96.7% | 99.9% | 101% | 94.1% | 94.9% | 100% | 96.7% | 99.4% | 100% | 99.6% | 98.8% | > 10 µM | > 10 µM | > 10 µM | > 10 µM | > 10 µM |
| CC(C)N(CC[C@H](c1ccccc1)c1cc(CO)ccc1O)C(C)C [5-hydroxymethyl-tolterodine] | 0 | 0 | 0 | 0 | 0 | 104% | 89.3% | 96.7% | 98.6% | 99.3% | 89% | 87.9% | 108% | 102% | 99.6% | 104% | 91.6% | 102% | 96.5% | 112% | 101% | 99.1% | 105% | 91.8% | 95.9% | 95.7% | 96.2% | 96.6% | 98.2% | 101% | > 10 µM | > 10 µM | > 10 µM | > 10 µM | > 10 µM |
| COc1cc(N2CCC(N)CC2)ccc1Nc1ncc(Cl)c(-c2c[nH]c3ccccc23)n1 [AZD3463] | 8 | 8 | 13.6 | 9.6 | 7.4 | 97.2% | 88.9% | 95.1% | 81.8% | 9.4% | 103% | 98.2% | 99.6% | 64.3% | 34.9% | 102% | 102% | 78.1% | 41.6% | 12.7% | 93.5% | 101% | 95.1% | 69.2% | 2.6% | 104% | 100% | 102% | 87.1% | 4.5% | 1.73 µM | 0.923 µM | 0.402 µM | 1.39 µM | 2.08 µM |
| O=C(O)C[C@H]1CC[C@H](c2ccc(NC(=O)c3nnc(Nc4ccc(F)c(F)c4)o3)cc2)CC1 [AZD3988] | 0 | 0 | 0 | 0 | 0 | 104% | 104% | 97.6% | 108% | 100% | 99% | 104% | 96.6% | 100% | 87.9% | 110% | 105% | 103% | 93% | 102% | 99.7% | 98.8% | 97.2% | 103% | 94.7% | 97.9% | 97.4% | 95.2% | 95.3% | 101% | > 10 µM | > 10 µM | > 10 µM | > 10 µM | > 10 µM |
| N[C@@H](C[C@@H](F)C(=O)O)C(=O)O [BAY-85-8050] | 0 | 0 | 0 | 0 | 0 | 90.2% | 94.7% | 90.6% | 86.2% | 98.5% | 91.1% | 105% | 97.8% | 100% | 110% | 96.2% | 98.7% | 109% | 95.6% | 99.7% | 93.5% | 99.6% | 96.7% | 100% | 106% | 93.6% | 93.8% | 102% | 95.7% | 100% | > 10 µM | > 10 µM | > 10 µM | > 10 µM | > 10 µM |
| COC(=O)c1ccc2c(c1)nc(NC(=O)c1ccccc1)n2CCCc1ccccc1 [BRD4770] | 0 | 1 | 1.6 | 0.1 | 0 | 107% | 96.6% | 97.4% | 93.6% | 95.5% | 98% | 103% | 94.1% | 91.9% | 80% | 109% | 97.2% | 99.9% | 94.3% | 77% | 97.9% | 98.6% | 98.2% | 99.3% | 88.3% | 103% | 97.4% | 98% | 96.6% | 90.1% | > 10 µM | > 10 µM | > 10 µM | > 10 µM | > 10 µM |
| CC1(C)[C@@H](OC(=O)CCC(=O)O)CC[C@]2(C)[C@H]3C(=O)C=C4[C@@H]5C[C@@](C)(C(=O)O)CC[C@]5(C)CC[C@@]4(C)[C@]3(C)CC[C@@H]12 [CARBENOXOLONE SODIUM] | 0 | 0 | 0 | 0 | 0 | 88.9% | 102% | 92.8% | 106% | 96% | 94.4% | 96.6% | 92.3% | 99.1% | 99% | 97.8% | 98% | 113% | 96.6% | 91.2% | 107% | 99.8% | 101% | 103% | 104% | 100% | 49.3% | 101% | 59.6% | 99.2% | > 10 µM | > 10 µM | > 10 µM | > 10 µM | > 10 µM |
| O=C(O)[C@H]1CN(CCCP(=O)(O)O)CCN1 [CPP] | 0.2 | 0 | 0 | 0 | 0 | 102% | 104% | 92.6% | 89.4% | 90.5% | 97% | 101% | 103% | 101% | 94.5% | 96.6% | 112% | 98.6% | 103% | 104% | 103% | 106% | 101% | 101% | 99.8% | 99.2% | 103% | 99.8% | 102% | 102% | > 10 µM | > 10 µM | > 10 µM | > 10 µM | > 10 µM |
| c1ccc(CNc2nc(NCc3ccccc3)c3ccccc3n2)cc1 [DBeQ] | 6 | 3.9 | 5.5 | 6.7 | 5.4 | 105% | 103% | 91.2% | 93.7% | 9% | 95.7% | 112% | 94.5% | 100% | 28.8% | 104% | 96.1% | 100% | 96.6% | 8.4% | 97.6% | 102% | 97.1% | 90.5% | 8.2% | 99.8% | 98.9% | 95.5% | 94.1% | 19.8% | 2.61 µM | 3.17 µM | 2.89 µM | 2.31 µM | 2.57 µM |
| O=P(O)(O)CN(CCN(CP(=O)(O)O)CP(=O)(O)O)CP(=O)(O)O [EDTMP] | 0 | 0 | 0 | 0 | 0 | 105% | 100% | 96% | 97.1% | 99% | 98.2% | 95.5% | 95.4% | 105% | 104% | 88.5% | 96.3% | 96.5% | 92.2% | 106% | 99.8% | 95.9% | 102% | 97.8% | 104% | 96.1% | 99.8% | 102% | 98.2% | 91% | > 10 µM | > 10 µM | > 10 µM | > 10 µM | > 10 µM |
| C[C@@H](CCCCC(=O)Nc1ccc(C(F)(F)F)cc1)NCCc1c[nH]cn1 [HTMT] | 0 | 0 | 0 | 0 | 0 | 100% | 97.8% | 100% | 106% | 100% | 97.2% | 92.8% | 87% | 99.4% | 94.1% | 110% | 95.6% | 104% | 104% | 98% | 99.9% | 100% | 96.9% | 101% | 106% | 98.3% | 94.7% | 98% | 100% | 108% | > 10 µM | > 10 µM | > 10 µM | > 10 µM | > 10 µM |
